Results taken from patent publication US20250269049A1, “CD20-TARGETED ANTIBODY COUPLING PHARMACEUTICAL PREPARATION” (priority 2017, published 2025).
“And” between values parts separate entries of the source, which are not always exact repeats. Equal entries are not always repeated.

How the values were obtained:
Ramos cells [1] = assay: In vitro cytotoxicity assay (CCK-8); assay type: cell-based; conditions: about 72 hours incubation, parallel detections 1 and 2
Text: Experiment 2: In vitro Cytotoxicity Assay
FBS, purchased from Lonsera, product number S711-001S;
Streptomycin/Penicillin Dual Antibody, purchased from HyClone, Lot: SV30010;
DPBS (Dulbecco's Phosphate Buffer Solution) was purchased from Gibco, product number 14190-136;
CCK-8 reagent, purchased from Biolite, product number 35004.
Ramos cells were purchased from COBIOER BIOSCIENCES CO., LTD.
Cell culture and plating: Ramos cells with viability greater than 80% in the logarithmic growth phase up to 30 generations were selected for the experiment. Ramos cells were removed from culture flasks and added to 50 mL centrifuge tubes and blown to mix. 1000 rpm (≈188g) centrifugation was performed for 5-6 minutes. The supernatant was discarded and the cells were resuspended with the appropriate volume of diluent. […]
Plate reading: Load the plate into the enzyme labeling instrument and read the plate with 450 nm as the reading wavelength and 650 nm as the reference wavelength.
Data processing: The IC50 value was calculated using a four-parameter fitting model with the concentration value as the horizontal coordinate and the difference between the absorbance value at 450 nm minus the absorbance value at 650 nm as the vertical coordinate.

Raji cells = assay: Internalization efficacy by flow cytometry, Raji cells; assay type: cell-based; conditions: 10 μg/mL, 37° C. 2 h, FIG. 2D
Experimental: (§1) Experiment 1: Method for Internalization Efficacy of Antibody-Drug Conjugate (TRS005) by Flow Cytometry
(§2) Cell preparation: take logarithmic growth phase Raji cells or Ramos cells, centrifuge at 1000 rpm for 5 minutes, resuspend using DPBS, adjust the density of live cells to 2×10^6 cells/mL, and divide into 1.5 mL centrifuge tubes, 1 mL/tube.
(§3) Sample dilution: The sample to be tested (TRS005 with a DAR of approximately 4.2) was diluted to 1000 μg/mL, 10 μL was added to each 1 mL of cell suspension, and blown and mixed to make the final concentration of the sample 10 μg/mL.
(§4) Incubation the cell suspension to which the samples were added was placed on ice and ice-bath for 30 minutes. […]
(§5) Cells from the negative control group treated with ice bath were gating and the average fluorescence intensity of cells in each tube at FL1 was recorded. […]
(§6) The percentage of endocytosis of the samples was calculated based on the average fluorescence intensity according to the following formula.
(§7) Internalization efficacy ratio %=(mean fluorescence intensity of negative control group−mean fluorescence intensity of experimental group)/mean fluorescence intensity of negative control group×100%.

[2] = system: Daudi cell xenografts tumor; assay: In vivo anti-tumor activity test, Daudi graft tumor; parameters: species or system BALB/c nude mice; conditions: tail vein, 6 injections over 21 days, two batches (first and second), listed as TRS005
Text: Experiment 3 In vivo Anti-Tumor Activity Test
1. Test animals and housing environment
Species: BALB/c nude mice
Gender of animals: male mice.
Age at acquisition: 6-8 weeks; Body weight at the beginning of the experiment: 18˜20 g.
Housing environment: SPF grade.
Daudi cells were purchased from the cell bank of the Type Culture Collection of the Chinese Academy of Sciences.
3. TEST SAMPLE: The Test Sample was Selected From Two Batches of the Product Prepared in Example 2.
Under aseptic conditions of 5% CO2 and 37° C., Daudi cells were cultured with PRMI1640 medium containing 10% fetal bovine serum, respectively, and expanded to 5.0×10^8 cells. Cells were collected by centrifugation and mixed 1:1 with Matrix gel and inoculated subcutaneously into the right side of the rib cage of BALB/c nude mice at 1×10^7 cells/200 μl/animal.
When the mean tumor volume reached 100 mm3, the group was randomized: […]
There were 10 nude mice in each group. Then the administration of the drug was started by tail vein administration, and the body weight of BALB/c nude mice and the long and short diameters of the tumors were measured, and recorded during the administration. […]
Tumor volume and Tumor weight were expressed as Mean±Standard Error of the Mean (Mean±SEM). Statistical tests were analyzed by one-way analysis of variance (ANOVA), with p<0.05 considered significant and p<0.01 considered highly significant.

Ramos cells [3] = assay: Internalization efficacy by flow cytometry, Ramos cells; assay type: cell-based; conditions: 10 μg/mL, 37° C. 2 h, FIG. 2C
Experimental: as §1, §2, §3, §4, §5, §6, §7

In the case of “Example 2: Anti-CD20 antibody TRS001 (rituximab biosimilar) conjugated to MMAE via maleimidocaproyl-valine-citrulline-p-aminobenzyloxycarbonyl linker; preferred DAR distribution”, the IC50 (Ramos cells [1]) was 0.0589 µg/mL and 0.0648 µg/mL, the internalization efficacy (Raji cells) was “good internalization efficacy” and the tumor inhibition rate ([2]; 0.75 mg/kg) was 91.08% and 92.09%. The tumor inhibition rate ([2]; 1.5 mg/kg) was 97.15% and 97.71% and the internalization efficacy (Ramos cells [3]) was “good internalization efficacy”.
